From article PMC7367925, “The EU-ToxRisk method documentation, data processing and chemical testing pipeline for the regulatory use of new approach methods” (Archives of Toxicology, 2020)
Read-outs that look alike come from different tables or passages of the source.

Tests used:
[1] = molecular target: T1, Progesterone receptor (Homo sapiens, UniProt P06401); experiment: PR-anti CALUX; assay type: cell-based; conditions: 24 h exposure, lowest effect level PC20, reference agonist at EC50, means from 3 assay runs
T1 construct: host or cells: U-2 OS
T1 sequence (P06401 1-933): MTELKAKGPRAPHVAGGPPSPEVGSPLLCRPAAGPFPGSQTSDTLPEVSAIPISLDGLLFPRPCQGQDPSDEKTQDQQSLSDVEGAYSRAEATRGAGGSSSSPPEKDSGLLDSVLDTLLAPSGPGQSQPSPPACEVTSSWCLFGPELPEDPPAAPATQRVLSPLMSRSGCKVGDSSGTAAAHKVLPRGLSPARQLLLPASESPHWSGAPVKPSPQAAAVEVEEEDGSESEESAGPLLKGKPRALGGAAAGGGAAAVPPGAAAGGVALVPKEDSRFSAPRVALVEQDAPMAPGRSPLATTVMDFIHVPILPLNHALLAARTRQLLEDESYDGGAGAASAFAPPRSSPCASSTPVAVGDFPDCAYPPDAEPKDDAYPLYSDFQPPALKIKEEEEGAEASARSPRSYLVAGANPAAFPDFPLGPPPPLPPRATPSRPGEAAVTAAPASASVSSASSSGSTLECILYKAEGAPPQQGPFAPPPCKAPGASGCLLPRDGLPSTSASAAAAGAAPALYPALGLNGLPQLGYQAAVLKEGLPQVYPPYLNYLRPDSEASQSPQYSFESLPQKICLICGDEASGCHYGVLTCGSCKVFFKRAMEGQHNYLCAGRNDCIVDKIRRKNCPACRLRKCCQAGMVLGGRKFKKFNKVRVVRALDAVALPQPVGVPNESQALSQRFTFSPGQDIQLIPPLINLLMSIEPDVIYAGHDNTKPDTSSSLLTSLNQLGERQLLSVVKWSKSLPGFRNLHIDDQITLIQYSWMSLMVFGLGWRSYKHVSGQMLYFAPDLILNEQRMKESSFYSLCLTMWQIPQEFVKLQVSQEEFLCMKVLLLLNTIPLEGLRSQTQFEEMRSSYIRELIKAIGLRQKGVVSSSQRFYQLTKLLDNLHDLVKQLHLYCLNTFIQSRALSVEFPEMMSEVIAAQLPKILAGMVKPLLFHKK
Description: (§1) After 24 h, exposure medium was prepared. […] All samples were tested in triplicates. […] Fig. SM_4. […] Fig. SM_4.
(§2) Supplementary Material SM_4
(§3) Overview of CALUX assays.
(§4) This is defined as the concentration of test compound […]
(§5) for an antagonist assay is a PC20.
(§6) PC = positive control. FI = fold induction. PC10: concentration where test compound causes an activation equal to 10% of the maximum effect (positive control). PC20: concentration where test compound causes […]
(§7) FI=1.5: concentration where test
(§8) (A) exemplary graph of concentration- […]
(§9) receptor antagonism assay with PC20 as lowest-effect-level. (C) exemplary graph for assay with 1.5 fold inductionas lowest effect level. 9

[2] = tested on: U-2 OS cells; conditions: human
[3] = molecular target: T2, Androgen receptor (Homo sapiens, UniProt P10275); assay type: cell-based; conditions: 24 h exposure, lowest effect level PC20, reference agonist at EC50, means from 3 assay runs
T2 construct: host or cells: U-2 OS
T2 sequence (P10275 1-920): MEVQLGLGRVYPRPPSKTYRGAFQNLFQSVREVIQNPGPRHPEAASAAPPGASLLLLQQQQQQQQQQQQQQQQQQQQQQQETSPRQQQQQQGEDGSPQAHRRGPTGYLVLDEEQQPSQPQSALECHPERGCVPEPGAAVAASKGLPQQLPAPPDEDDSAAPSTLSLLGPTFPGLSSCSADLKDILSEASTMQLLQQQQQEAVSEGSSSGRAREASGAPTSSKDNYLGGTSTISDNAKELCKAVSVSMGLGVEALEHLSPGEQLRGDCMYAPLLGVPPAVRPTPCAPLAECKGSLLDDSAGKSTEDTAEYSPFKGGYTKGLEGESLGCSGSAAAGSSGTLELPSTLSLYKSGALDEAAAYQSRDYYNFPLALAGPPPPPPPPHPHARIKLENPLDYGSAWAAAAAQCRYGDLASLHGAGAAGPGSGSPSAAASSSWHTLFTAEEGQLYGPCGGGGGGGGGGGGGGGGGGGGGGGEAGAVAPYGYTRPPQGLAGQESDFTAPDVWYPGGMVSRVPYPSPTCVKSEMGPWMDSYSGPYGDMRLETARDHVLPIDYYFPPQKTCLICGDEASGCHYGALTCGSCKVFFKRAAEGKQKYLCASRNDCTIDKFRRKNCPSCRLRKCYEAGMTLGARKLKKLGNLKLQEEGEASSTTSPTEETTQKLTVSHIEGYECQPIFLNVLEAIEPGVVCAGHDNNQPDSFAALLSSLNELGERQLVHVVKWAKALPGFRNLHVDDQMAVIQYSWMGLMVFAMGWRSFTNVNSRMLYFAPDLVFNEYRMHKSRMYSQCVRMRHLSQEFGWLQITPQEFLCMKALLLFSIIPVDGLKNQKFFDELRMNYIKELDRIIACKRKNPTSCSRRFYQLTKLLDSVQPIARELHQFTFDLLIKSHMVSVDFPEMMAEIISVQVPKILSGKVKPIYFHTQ
Description: as §1, §2, §3, §4, §5, §6, §7, §8, §9

[4] = tested on: Transcription of p21 inhibitor of cell cycle progression; experiment: p21 CALUX; assay type: cell-based, human; conditions: 24 h exposure, lowest effect level PC10, means from 3 assay runs
Description: as §1, §2, §3, §4, §5, §6, §7, §8, §9

[5] = tested on: p53-dependent pathway activation / genotoxicity; assay type: cell-based, human; conditions: for PoD p53: 24 h exposure, lowest effect level FI=1.5, means from 3 assay runs
Description: as §1, §2, §3, §4, §5, §6, §7, §8, §9

[6] = molecular target: T3, Thyroid hormone receptor beta (Homo sapiens, UniProt P10828); experiment: TRb-anti CALUX; assay type: cell-based; conditions: 24 h exposure, lowest effect level PC20, reference agonist at EC50, means from 3 assay runs
T3 construct: host or cells: U-2 OS
T3 sequence (P10828 1-461): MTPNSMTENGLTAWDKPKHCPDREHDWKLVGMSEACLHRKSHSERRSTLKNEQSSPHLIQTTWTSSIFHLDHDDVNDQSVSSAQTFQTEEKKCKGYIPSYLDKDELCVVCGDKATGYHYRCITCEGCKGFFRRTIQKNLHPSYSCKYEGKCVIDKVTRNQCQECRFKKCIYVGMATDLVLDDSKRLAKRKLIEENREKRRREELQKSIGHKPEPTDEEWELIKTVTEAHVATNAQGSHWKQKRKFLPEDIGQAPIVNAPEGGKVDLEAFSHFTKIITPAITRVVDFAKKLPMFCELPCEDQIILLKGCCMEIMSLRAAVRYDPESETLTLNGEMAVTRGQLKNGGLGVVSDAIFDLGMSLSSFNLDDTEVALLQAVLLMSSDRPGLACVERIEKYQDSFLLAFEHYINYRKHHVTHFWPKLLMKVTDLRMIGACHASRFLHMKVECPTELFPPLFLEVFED
Description: as §1
Cell line Endpoint effect Reference compound […]
Cytotox CALUX Cytoxicity PC20 tributyltinacetate
as §2, §3, §4, §5, §6, §7, §8, §9

[7] = tested on: U-2 OS reporter cell lines battery; experiment: CALUX reporter gene assay battery as a whole
[8] = tested on: U-2 OS cells; experiment: Cytotox CALUX; conditions: for PoD cytotoxicity: 24 h exposure, lowest effect level PC20, means from 3 assay runs
[9] = tested on: Endoplasmic reticulum stress; experiment: ESRE CALUX; assay type: cell-based, human; conditions: 24 h exposure, lowest effect level PC10, means from 3 assay runs
Description: as §1, §2, §3, §4, §5, §6, §7, §8, §9

[10] = molecular target: T4, Pregnane X receptor (Homo sapiens, UniProt O75469); experiment: PXR CALUX; assay type: cell-based; conditions: 24 h exposure, lowest effect level PC10, means from 3 assay runs
T4 construct: host or cells: U-2 OS
T4 sequence (O75469 1-434): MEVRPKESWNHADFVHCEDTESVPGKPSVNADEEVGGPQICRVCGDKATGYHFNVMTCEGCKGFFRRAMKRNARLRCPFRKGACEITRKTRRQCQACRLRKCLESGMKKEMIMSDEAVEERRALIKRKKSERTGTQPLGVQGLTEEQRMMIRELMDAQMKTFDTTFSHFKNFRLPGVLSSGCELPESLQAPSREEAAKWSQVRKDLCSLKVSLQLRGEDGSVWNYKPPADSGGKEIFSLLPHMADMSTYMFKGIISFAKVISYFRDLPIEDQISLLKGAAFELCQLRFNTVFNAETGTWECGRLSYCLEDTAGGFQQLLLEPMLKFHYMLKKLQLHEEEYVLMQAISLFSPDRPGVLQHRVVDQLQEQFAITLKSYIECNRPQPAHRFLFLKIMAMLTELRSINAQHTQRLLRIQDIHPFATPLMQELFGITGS
Description: as §1, §2, §3, §4, §5, §6, §7, §8, §9

[11] = tested on: Nrf2 (Oxidative stress); experiment: Nrf2 CALUX; assay type: cell-based, human; conditions: 24 h exposure, lowest effect level FI=1.5, means from 3 assay runs
Description: as §1, §2, §3, §4, §5, §6, §7, §8, §9

[12] = pooled test systems of the NAM panel (all test methods)
[13] = design: method as in Hardman JG 2001; conditions: known Cmax in man; ref Hardman JG 2001; cited from earlier work
[14] = all CALUX assays, 13 concentrations, 24 h exposure

Row | Structure (SMILES) | PoD p53 [5] | response profile over the CALUX battery (in words) [7, 14] | PoD cytotoxicity [8] | viability [12] [%] | Cmax [13] [µM] | other results
1 | CC(=O)O[C@H]1C(=O)[C@@]2(C)[C@H]([C@H](OC(=O)c3ccccc3)[C@]3(O)C[C@H](OC(=O)[C@H](O)[C@@H](NC(=O)c4ccccc4)c4ccccc4)C(C)=C1C3(C)C)[C@]1(OC(C)=O)CO[C@@H]1C[C@@H]2O [Taxol] | 8.2 -log(M) |  |  |  |  | PoD PR - anta [1]: 7.4 -log(M); PoD cytotoxicity [2]: 5.6; cytotoxic concentration [2]: about 2.5 µM; PoD AR - anta [3]: 7.3 -log(M); PoD p21 [4]: 8.0 -log(M); concentration activating expression of p53 [5]: < 10 nM; PoD TRβ - anta [6]: 7.4 -log(M)
2 | Oc1c(Cl)cc(Cl)c(Cl)c1Cc1c(O)c(Cl)cc(Cl)c1Cl [Hexachlorophene] |  | only activated nuclear hormone receptor related assays | 5.5 -log(M) |  |  | PoD AR - anta [3]: 5.7 -log(M); PoD TRβ - anta [6]: 6.0 -log(M)
3 | C[n+]1ccc(-c2ccccc2)cc1 [MPP^+, methyl-phenyl-pyridinium] |  | no effect |  |  |  | 
4 | CO[C@H]1/C=C/O[C@@]2(C)Oc3c(C)c(O)c4c(O)c(c(/C=N/N5CCN(C)CC5)c(O)c4c3C2=O)NC(=O)/C(C)=C\C=C\[C@H](C)[C@H](O)[C@@H](C)[C@@H](O)[C@@H](C)[C@H](OC(C)=O)[C@@H]1C [Rifampicin] | 4.2 -log(M) |  |  |  |  | PoD PR - anta [1]: 4.8 -log(M); PoD ESRE [9]: 4.0 -log(M); response profile over the CALUX battery (in words) [7]: additionally activated several stress pathway related assays; PoD cytotoxicity [2]: 4.0; PoD PXR - ago [10]: 7.1 -log(M); PoD Nrf2 [11]: 4.6 -log(M)
5 | Cc1noc(NS(=O)(=O)c2ccc(N)cc2)c1C [Sulfisoxazole] |  | no effect |  | 100 | 464 | 
6 | C=C(C)[C@H]1Cc2c(ccc3c2O[C@@H]2COc4cc(OC)c(OC)cc4[C@@H]2C3=O)O1 [Rotenone] | 6.8 -log(M) |  | 5.7 -log(M) |  |  | 
7 | CNC(=O)Oc1cccc2ccccc12 [Carbaryl] | 3.8 -log(M) |  |  |  |  | PoD PXR - ago [10]: 4.0 -log(M)
8 | CCOC(=O)C(C)(C)Oc1ccc(Cl)cc1 [Clofibrate] |  | no effect |  | 100 |  | 
9 | COc1cc2c(c(OC)c1OC)-c1ccc(OC)c(=O)cc1[C@@H](NC(C)=O)CC2 [Colchicine] |  |  | 7.3 -log(M) |  | 449 | cytotoxic concentration [8]: 50 nM
10 | CCCCNC(=O)NS(=O)(=O)c1ccc(C)cc1 [Tolbutamide] |  |  |  | 100 | 196 | 
